Results from US20100130579A1, “CANCER THERAPY” (Georgetown University, priority 2006, published 2010).

What was measured:
LNCaP cells = experiment: Flow cytometric cell cycle analysis, LNCaP; assay type: cell-based, human; conditions: mahanine 3 days
Experimental: (§1) FIG. 4A-4B. Mahanine arrests prostate cancer cells at G0/G1 phase of cell cycle. To determine if down-regulation of cyclin D1 by mahanine treatments affect cell cycle, PC3 4(A) and LNCaP 4(B) cells were treated with 0, 1 and 2 μg/ml mahanine for 3 days. After treatment, flow cytometric analyses were performed. The percentage of cells in the G0/G1, S and G2/M-phase of the cell cycle were shown on right. FACS analysis of PC3 and LNCaP prostate cancer cells with vehicle or 2 μg/ml mahanine are shown in the left panel. Values are the mean from two independent experiments in duplicates.
(§2) Since cyclin D1 regulates cell cycle progression at the G0/G1 phase, Aplicants examined the cell cycle profile of PC3 and LNCaP cells in the presence of various concentrations of mahanine.

RASSF1 gene = experiment: Gene array (microarray) analysis of RASSF1 expression; assay type: cell-based, human; conditions: PC3 cells, 2 μg/ml mahanine, 2 days, compared to vehicle-treated control
Experimental: FIGS. 1A-1D. Mahanine induces RASSF1A in prostate and other cancer cells. FIG. 1A: Microarray analyses of PC3 cells treated with ([…] (+) or vehicle (−) for 2 days, RNA was extracted and microarray analysis was performed. FIG. 1B: RT-PCR data showing the expression of RASSF1A and GAPDH in untreated normal prostate epithelial cells (PrEC) and human prostate cancer cells (PC3). FIG. 1C: PC3 (left panel) and LNCaP (right panel) cells were treated with 0, 1, 2 and 3 μg/ml mahanine for 3 days. RNA was extracted, and RT-PCR assays were performed to detect RASSF1A and GAPDH expression. Representative photograph from an experiment that was repeated thrice. Quantitative estimations of relative levels of RASSF1A mRNAs (lower panels) were determined by densitometric measurements of RT-PCR gels from three independent experiments after normalization with GAPDH. […]
Microarray analysis: Total RNA was isolated from […] cells treated with or without mahanine using TRIZOL reagent (Invitrogen Corp., Carlsbad, Calif.). […] RNA was evaluated by electrophoresis before continuing with probe synthesis and hybridization. […] Following repetitive washing in saline-sodium citrate/SDS, hybridized cDNA probes were detected by chemiluminescence. […] Bound biotinylated cDNA probe was detected with alkaline phosphatase-conjugated streptavidin and CDP-Star chemiluminescent substrate (SuperArray). […]

LNCaP and PC3 cells = conditions: androgen-responsive LNCaP and androgen-independent PC3 cells; cited from earlier work
cyclin D1 = experiment: RT-PCR of cyclin D1 mRNA in cancer cells; assay type: cell-based, human
cyclin D1 protein = experiment: Western blot of cyclin D1 protein levels; assay type: cell-based, human; conditions: 3 days
Experimental: FIGS. 3A-3C. Mahanine down-regulates cyclin D1 protein in prostate cancer cells. FIG. 3A and FIG. 3B: Western blots showing cyclin D1 protein levels in PC3 (A) and LNCaP (B) cells treated with 0, 1, 2 and 3 μg/ml mahanine for 3 days. Protein lysates (50 μg) from PC3 and LNCaP cells were resolved on 12% SDS-PAGE, and immunoblots were probed with antibodies to cyclin D1. All immunoblots were re-probed with β-actin antibodies to ensure equal loading. Representative photographs from an experiment that was repeated thrice. Quantitative analyses of relative levels of cyclin D1 proteins are shown on the right panels. […] FIG. 3C: PC3 cells were plated on chamber slides and treated with or without 2 μg/ml mahanine for 2 days. Cells were then fixed in methanol, incubated with cyclin D1 antibody overnight, Alexi Fluor-conjugated secondary antibodies for 1 hour and counter stained with propidium iodide (PI). Slides were then mounted and examined using a fluorescence microscope. Photographs were taken at the same magnification (×20) and then transported to Photoshop. Representative photographs from an experiment that was repeated twice.
Western blots analysis: Protein lysates were prepared from PC3 and LNCaP cells that were treated with or without mahanine. […] Band intensities were quantified by utilizing ImageJ software (NIH, Bethesda, Md.).

PC3 cells = experiment: Flow cytometric cell cycle analysis, PC3; assay type: cell-based, human; conditions: 3 days
Experimental: as §1, §2

For `CC(C)=CCC[C@@]1(C)C=Cc2c(c(C)cc3c2[nH]c2cc(O)ccc23)O1` [mahanine], the “cells in S-phase” value (LNCaP cells; decreased from 25.6% (control)) was 6.1%, the “cells in G0/G1 phase” value (LNCaP cells; increased from 63.7% (control)) was 90.7% and the “RASSF1 gene expression (gene array)” value (RASSF1 gene) was “dramatically induced”. The “growth of prostate cancer cells” value (LNCaP and PC3 cells) was “inhibits growth in a dose-dependent manner”, the “cyclin D1 expression (RT-PCR)” value (cyclin D1; PC3 cells, 1, 2 and 3 μg/ml, 3 days) was “down-regulated the expression of cyclin D1 in PC3 cells in a dose-dependent manner” and the “cyclin D1 expression (RT-PCR)” value (cyclin D1; epidermoid (A431), lung (A549), pancreatic (ASPC-1), colon (HT-29), breast (MCF7) and ovarian (SKOV-3) cancer cells, 2 and 3 μg/ml, 2 days) was “down regulation of cyclin D1”. The “cyclin D1 protein levels decreased to” value (cyclin D1 protein; PC3 cells, 1 μg/ml, p<0.01) was “about 40%”, the “cyclin D1 protein (Western blot)” value (cyclin D1 protein; PC3 cells, 1, 2 and 3 μg/ml) was “dose-dependent decrease” and the “cells in S-phase” value (PC3 cells; 1 μg/ml, vehicle 7.5%) was “decreased the S-phase”. The “cells in G0/G1-phase” value (PC3 cells; 1 μg/ml, vehicle 26%) was “increased the G0/G1-phase”, the “cells in G0/G1-phase” value (PC3 cells; 2 μg/ml) was “further increased” and the “cells in S-phase” value (PC3 cells; 2 μg/ml) was “completely abolished”.
